Test results published in ChEMBL document CHEMBL2073744, “The multidrug-resistant phenotype associated with overexpression of the new ABC half-transporter, MXR (ABCG2)” (J Cell Sci, 2000).

Columns and labels:
[1] = biological target: T1, Broad substrate specificity ATP-binding cassette transporter ABCG2 (Homo sapiens, UniProt Q9UNQ0); assay: TP_TRANSPORTER: intracellular accumulation in S1 and S1-M1-80 cells; format: functional, cell-based; details: s1;s1-m1-80
T1 sequence (Q9UNQ0 whole entry): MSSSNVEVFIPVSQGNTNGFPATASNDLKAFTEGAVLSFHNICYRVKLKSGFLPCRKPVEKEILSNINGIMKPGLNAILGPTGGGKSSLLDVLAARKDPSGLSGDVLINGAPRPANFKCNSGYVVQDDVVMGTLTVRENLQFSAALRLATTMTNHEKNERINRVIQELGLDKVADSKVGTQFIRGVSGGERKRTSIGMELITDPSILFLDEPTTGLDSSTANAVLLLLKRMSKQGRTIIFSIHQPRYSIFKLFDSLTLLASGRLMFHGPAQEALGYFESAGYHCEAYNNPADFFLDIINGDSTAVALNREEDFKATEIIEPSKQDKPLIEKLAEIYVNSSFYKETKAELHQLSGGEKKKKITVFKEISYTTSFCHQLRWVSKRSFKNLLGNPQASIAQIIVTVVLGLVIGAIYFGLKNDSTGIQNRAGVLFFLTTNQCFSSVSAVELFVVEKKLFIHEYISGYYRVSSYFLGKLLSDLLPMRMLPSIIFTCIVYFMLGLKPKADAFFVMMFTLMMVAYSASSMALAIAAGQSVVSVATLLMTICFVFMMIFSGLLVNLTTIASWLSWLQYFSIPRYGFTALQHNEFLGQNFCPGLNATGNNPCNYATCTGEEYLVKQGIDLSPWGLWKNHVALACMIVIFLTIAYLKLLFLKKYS

[2] = biological target: T1, Broad substrate specificity ATP-binding cassette transporter ABCG2; assay: TP_TRANSPORTER: intracellular accumulation in MCF-7 and MCF-7 AdVp3000 cells; format: functional, cell-based

## O=C1c2c(O)ccc(O)c2C(=O)c2c(NCCNCCO)ccc(NCCNCCO)c21 [MITOXANTRONE]
[1]
  Activity: substrate [+]
[2]
  Activity: substrate [+]
